{"source": "paper PMC11397024", "about": "“Strategic Fluorination to Achieve a Potent, Selective, Metabolically Stable, and Orally Bioavailable Inhibitor of CSNK2” (Molecules, 2024)", "experiment_in_all_cases": "NanoBRET K192", "type_in_all_cases": "cell-based", "key": {"RIPK2": {"target": "T1, RIPK2 (Homo sapiens, UniProt O43353)", "T1 construct": "purchased Promega (NanoBRET Target Engagement K192 Kinase Selectivity System)", "conditions": "HEK293", "method": "(§1) The K192 selectivity assay was run according to the Draft Promega technical manual, NanoBRET^TM Target Engagement K192 Kinase Selectivity System. Reagents were supplied by Promega (Promega NP 4101). For the assay, DNA from the prepared kinase vector panel plates A and B were mixed with Fugene in 96-well plates (Corning 3917) and incubated at room temperature for 30 min. The NanoLuc® Low control vector pNL1.1.CMV [Nluc/CMV] Vector (Cat.# N1091) and the transfection control vector NanoLuc®-HIPK2 Fusion Vector (Cat.# NV3221) were used as controls.\n(§2) HEK293 cells were grown to 75–95% confluency in DMEM (Gibco 11995-065) supplemented with FBS (Avantor 97068-085) at 37 °C in […]. On the first day of the assay, cells were harvested and resuspended in Opti-MEM (Gibco 11058-021) supplemented with 1% FBS (Avantor 97068-085) at 2.5 × 10^5 cells per mL. A volume of 60 μL of cell suspension was mixed with 10 μL of prepared DNA (10X concentration) and 30 μL of Fugene (30 μL/mL in Opti-MEM) as outlined by Promega and incubated overnight at 37 °C in a 5% CO2 incubator.\n(§3) On day two of the assay, 5 μL of 20X K10 tracer was prepared and added at concentrations recommended by Promega. Then, 10 μL of test compounds at 100 μM in Opti-MEM (diluted from a 10 mM solution in DMSO) was added to the test wells while an equivalent volume of Opti-MEM was added to the high-control wells. Plates were kept at 37 °C in a 5% CO2 incubator for two hours. After two hours, plates were allowed to equilibrate to room temperature for 15 min. A solution of 3X Complete Substrate plus Inhibitor Solution was freshly prepared, consisting of a 1:166 dilution of NanoBRET™ Nano-Glo® Substrate plus a 1:500 dilution of Extracellular NanoLuc® Inhibitor in Opti-MEM® medium without serum or phenol red. A 50 μL volume of the 3X Complete Substrate plus Inhibitor Solution was added to each assay well, including control wells. After 2–3 min, the plate was shaken at 300 RPM for 10 s, and the donor emission wavelength (450 nm) and acceptor emission wavelength (610 nm) were measured using the Glomax® Discover System.\n(§4) As a quality check, the donor signal-to-background ratio was calculated for each individual kinase by dividing the mean donor signal for each kinase by the mean donor signal for the signal-to-background control wells. Fractional occupancy of the test drug for each kinase was determined using the following formula:Occupancy (%) = [1 − (Sample − Bottom)/(Top − Bottom)] × 100 where"}, "LIMK2": {"target": "T2, LIMK2 (Homo sapiens, UniProt P53671)", "T2 construct": "purchased Promega (NanoBRET Target Engagement K192 Kinase Selectivity System)", "T2 sequence (P53671 whole entry)": "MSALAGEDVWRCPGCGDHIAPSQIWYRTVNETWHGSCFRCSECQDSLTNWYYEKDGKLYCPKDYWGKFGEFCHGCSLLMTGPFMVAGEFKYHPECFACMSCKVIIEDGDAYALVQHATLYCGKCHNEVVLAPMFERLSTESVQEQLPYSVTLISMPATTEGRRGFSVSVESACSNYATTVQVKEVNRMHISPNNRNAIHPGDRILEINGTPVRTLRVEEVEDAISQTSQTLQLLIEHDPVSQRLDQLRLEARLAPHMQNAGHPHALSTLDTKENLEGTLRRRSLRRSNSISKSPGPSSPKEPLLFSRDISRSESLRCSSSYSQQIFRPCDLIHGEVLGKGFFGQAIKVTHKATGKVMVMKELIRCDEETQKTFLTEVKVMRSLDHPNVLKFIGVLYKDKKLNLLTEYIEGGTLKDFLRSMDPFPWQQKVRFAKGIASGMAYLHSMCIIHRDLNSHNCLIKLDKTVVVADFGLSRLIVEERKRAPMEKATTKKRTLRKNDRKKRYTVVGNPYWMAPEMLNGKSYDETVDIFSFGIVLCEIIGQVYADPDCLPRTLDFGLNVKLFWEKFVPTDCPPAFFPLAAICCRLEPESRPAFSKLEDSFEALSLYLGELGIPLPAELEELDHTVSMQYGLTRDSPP", "conditions": "HEK293", "method": "as §1, §2, §3, §4"}, "HIPK3": {"target": "T3, HIPK3 (Homo sapiens, UniProt Q9H422)", "T3 construct": "purchased Promega (NanoBRET Target Engagement K192 Kinase Selectivity System)", "T3 sequence (Q9H422 whole entry)": "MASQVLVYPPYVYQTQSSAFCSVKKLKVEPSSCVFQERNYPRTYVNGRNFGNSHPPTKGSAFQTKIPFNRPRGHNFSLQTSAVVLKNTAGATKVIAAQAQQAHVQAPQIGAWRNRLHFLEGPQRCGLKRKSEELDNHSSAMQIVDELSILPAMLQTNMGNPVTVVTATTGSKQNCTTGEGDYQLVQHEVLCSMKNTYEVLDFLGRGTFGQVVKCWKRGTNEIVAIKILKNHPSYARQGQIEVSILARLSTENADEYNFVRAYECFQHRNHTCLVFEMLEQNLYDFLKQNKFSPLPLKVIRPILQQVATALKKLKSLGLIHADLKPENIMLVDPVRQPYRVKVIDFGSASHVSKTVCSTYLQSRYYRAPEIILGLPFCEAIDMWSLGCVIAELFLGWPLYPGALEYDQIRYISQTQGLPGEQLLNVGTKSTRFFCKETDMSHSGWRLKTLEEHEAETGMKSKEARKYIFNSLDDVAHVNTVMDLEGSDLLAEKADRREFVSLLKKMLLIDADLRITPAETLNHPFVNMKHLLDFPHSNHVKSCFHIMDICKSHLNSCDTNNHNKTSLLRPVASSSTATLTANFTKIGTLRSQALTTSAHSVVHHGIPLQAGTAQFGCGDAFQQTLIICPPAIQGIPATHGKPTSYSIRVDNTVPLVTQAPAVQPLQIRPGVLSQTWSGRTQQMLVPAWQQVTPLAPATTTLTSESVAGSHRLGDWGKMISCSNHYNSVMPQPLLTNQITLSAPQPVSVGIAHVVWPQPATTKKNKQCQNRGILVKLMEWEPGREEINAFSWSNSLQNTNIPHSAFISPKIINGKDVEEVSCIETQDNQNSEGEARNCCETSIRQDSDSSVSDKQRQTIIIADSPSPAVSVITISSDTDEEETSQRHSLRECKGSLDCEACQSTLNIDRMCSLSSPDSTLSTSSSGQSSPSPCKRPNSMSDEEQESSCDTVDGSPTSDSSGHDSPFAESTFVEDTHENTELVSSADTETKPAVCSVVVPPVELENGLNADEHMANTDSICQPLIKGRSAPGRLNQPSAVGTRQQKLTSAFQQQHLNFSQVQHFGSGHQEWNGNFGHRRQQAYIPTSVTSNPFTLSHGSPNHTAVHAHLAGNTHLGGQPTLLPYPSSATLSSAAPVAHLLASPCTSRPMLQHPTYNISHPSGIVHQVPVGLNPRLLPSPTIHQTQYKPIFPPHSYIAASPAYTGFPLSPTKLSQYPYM", "conditions": "HEK293", "method": "as §1, §2, §3, §4"}, "NEK11": {"target": "T4, NEK11 (Homo sapiens, UniProt Q8NG66)", "T4 construct": "purchased Promega (NanoBRET Target Engagement K192 Kinase Selectivity System)", "conditions": "HEK293", "method": "as §1, §2, §3, §4"}, "PHKG2": {"target": "T5, PHKG2 (Homo sapiens, UniProt P15735)", "T5 construct": "purchased Promega (NanoBRET Target Engagement K192 Kinase Selectivity System)", "T5 sequence (P15735 whole entry)": "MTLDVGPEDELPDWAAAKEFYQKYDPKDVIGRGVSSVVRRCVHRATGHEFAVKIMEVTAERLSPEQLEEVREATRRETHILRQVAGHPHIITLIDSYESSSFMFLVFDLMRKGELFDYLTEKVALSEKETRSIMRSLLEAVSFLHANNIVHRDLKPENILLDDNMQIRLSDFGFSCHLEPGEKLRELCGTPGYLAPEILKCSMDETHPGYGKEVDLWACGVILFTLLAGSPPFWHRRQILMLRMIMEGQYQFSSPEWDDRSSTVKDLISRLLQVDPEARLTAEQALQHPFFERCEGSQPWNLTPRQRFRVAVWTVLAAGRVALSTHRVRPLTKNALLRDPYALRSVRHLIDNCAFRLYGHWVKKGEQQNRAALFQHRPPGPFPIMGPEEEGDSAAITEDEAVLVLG", "conditions": "HEK293", "method": "as §1, §2, §3, §4"}, "CSNK2A2": {"target": "T6, CSNK2A2 (Homo sapiens, UniProt P19784)", "T6 construct": "expressed in transfected cells; host or cells: HEK293", "T6 sequence (P19784 whole entry)": "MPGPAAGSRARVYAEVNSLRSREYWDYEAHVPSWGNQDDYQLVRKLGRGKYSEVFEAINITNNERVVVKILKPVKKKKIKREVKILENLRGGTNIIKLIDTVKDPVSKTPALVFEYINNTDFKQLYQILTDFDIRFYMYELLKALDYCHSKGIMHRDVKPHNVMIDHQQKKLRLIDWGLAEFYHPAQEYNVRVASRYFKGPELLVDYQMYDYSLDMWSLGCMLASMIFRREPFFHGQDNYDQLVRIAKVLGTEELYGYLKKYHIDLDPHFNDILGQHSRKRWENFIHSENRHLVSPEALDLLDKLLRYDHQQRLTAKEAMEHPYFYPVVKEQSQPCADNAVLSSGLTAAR", "method": "as §1, §2, §3, §4"}, "NEK1": {"target": "T7, NEK1 (Homo sapiens, UniProt Q96PY6)", "T7 construct": "purchased Promega (NanoBRET Target Engagement K192 Kinase Selectivity System)", "T7 sequence (Q96PY6 whole entry)": "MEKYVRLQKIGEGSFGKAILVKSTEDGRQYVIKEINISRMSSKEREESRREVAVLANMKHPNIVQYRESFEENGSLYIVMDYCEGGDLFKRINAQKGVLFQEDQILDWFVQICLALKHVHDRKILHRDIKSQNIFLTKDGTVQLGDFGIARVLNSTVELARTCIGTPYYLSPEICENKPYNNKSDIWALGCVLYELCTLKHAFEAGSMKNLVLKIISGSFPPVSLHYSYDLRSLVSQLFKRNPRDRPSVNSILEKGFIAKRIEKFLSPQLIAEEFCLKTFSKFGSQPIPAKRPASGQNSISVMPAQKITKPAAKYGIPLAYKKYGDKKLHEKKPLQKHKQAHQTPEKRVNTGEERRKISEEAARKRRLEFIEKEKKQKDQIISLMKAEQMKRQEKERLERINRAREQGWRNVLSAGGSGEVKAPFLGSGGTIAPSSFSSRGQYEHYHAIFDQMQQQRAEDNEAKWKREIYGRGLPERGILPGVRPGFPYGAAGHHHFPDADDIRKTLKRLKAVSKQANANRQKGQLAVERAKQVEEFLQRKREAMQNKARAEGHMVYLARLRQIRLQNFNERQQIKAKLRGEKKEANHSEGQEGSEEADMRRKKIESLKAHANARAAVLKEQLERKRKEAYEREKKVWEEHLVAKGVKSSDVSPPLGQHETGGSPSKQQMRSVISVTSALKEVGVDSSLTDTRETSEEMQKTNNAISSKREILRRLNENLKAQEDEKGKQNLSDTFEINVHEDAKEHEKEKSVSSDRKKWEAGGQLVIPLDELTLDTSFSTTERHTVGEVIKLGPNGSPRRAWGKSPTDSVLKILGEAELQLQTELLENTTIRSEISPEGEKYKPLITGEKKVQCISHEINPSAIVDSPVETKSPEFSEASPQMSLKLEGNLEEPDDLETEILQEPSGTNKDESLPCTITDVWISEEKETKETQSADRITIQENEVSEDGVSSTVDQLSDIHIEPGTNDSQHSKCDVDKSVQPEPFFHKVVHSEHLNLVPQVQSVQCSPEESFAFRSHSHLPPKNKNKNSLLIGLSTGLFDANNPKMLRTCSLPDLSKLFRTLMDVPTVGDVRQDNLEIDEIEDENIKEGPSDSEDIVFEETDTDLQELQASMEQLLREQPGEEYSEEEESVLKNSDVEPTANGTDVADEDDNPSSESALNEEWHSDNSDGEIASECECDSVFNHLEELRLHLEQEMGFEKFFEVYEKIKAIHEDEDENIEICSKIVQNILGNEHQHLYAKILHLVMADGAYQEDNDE", "conditions": "HEK293", "method": "as §1, §2, §3, §4"}, "STK33": {"target": "T8, STK33 (Homo sapiens, UniProt Q9BYT3)", "T8 construct": "purchased Promega (NanoBRET Target Engagement K192 Kinase Selectivity System)", "T8 sequence (Q9BYT3 whole entry)": "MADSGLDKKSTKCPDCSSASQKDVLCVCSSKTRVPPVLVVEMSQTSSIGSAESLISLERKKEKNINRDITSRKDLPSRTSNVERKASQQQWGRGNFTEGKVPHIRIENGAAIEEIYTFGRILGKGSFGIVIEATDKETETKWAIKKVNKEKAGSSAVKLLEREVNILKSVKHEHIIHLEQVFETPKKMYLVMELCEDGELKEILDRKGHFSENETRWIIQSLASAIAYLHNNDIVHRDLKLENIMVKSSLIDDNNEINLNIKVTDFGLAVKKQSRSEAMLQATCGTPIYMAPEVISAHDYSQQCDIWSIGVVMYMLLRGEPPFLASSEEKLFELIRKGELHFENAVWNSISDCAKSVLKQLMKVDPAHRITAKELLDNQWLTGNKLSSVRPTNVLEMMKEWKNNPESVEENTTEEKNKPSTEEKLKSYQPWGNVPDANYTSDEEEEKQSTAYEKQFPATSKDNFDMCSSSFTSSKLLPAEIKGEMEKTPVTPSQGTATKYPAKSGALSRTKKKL", "conditions": "HEK293", "method": "as §1, §2, §3, §4"}, "STK4": {"target": "T9, STK4 (Homo sapiens, UniProt Q13043)", "T9 construct": "purchased Promega (NanoBRET Target Engagement K192 Kinase Selectivity System)", "conditions": "HEK293", "method": "as §1, §2, §3, §4"}, "BRSK1": {"target": "T10, BRSK1 (Homo sapiens, UniProt Q8TDC3)", "T10 construct": "purchased Promega (NanoBRET Target Engagement K192 Kinase Selectivity System)", "conditions": "HEK293", "method": "as §1, §2, §3, §4"}, "MAP3K19": {"target": "T11, MAP3K19 (Homo sapiens, UniProt Q56UN5)", "T11 construct": "purchased Promega (NanoBRET Target Engagement K192 Kinase Selectivity System)", "conditions": "HEK293", "method": "as §1, §2, §3, §4"}, "CDK2 + E1": {"target": "T12, CDK2 + E1 (Homo sapiens, UniProt P24941)", "T12 construct": "purchased Promega (NanoBRET Target Engagement K192 Kinase Selectivity System)", "conditions": "HEK293", "method": "as §1, §2, §3, §4"}, "AURKC": {"target": "T13, AURKC (Homo sapiens, UniProt Q9UQB9)", "T13 construct": "purchased Promega (NanoBRET Target Engagement K192 Kinase Selectivity System)", "conditions": "HEK293", "method": "as §1, §2, §3, §4"}, "CDK6 + D1": {"target": "T14, CDK6 + D1 (Homo sapiens, UniProt Q00534)", "T14 construct": "purchased Promega (NanoBRET Target Engagement K192 Kinase Selectivity System)", "conditions": "HEK293", "method": "as §1, §2, §3, §4"}, "PLK2": {"target": "T15, PLK2 (Homo sapiens, UniProt Q9NYY3)", "T15 construct": "purchased Promega (NanoBRET Target Engagement K192 Kinase Selectivity System)", "conditions": "HEK293", "method": "as §1, §2, §3, §4"}, "BTK": {"target": "T16, BTK (Homo sapiens, UniProt Q06187)", "T16 construct": "purchased Promega (NanoBRET Target Engagement K192 Kinase Selectivity System)", "conditions": "HEK293", "method": "as §1, §2, §3, §4"}, "EPHA4": {"target": "T17, EPHA4 (Homo sapiens, UniProt P54764)", "T17 construct": "purchased Promega (NanoBRET Target Engagement K192 Kinase Selectivity System)", "conditions": "HEK293", "method": "as §1, §2, §3, §4"}, "PAK6": {"target": "T18, PAK6 (Homo sapiens, UniProt Q9NQU5)", "T18 construct": "purchased Promega (NanoBRET Target Engagement K192 Kinase Selectivity System)", "conditions": "HEK293", "method": "as §1, §2, §3, §4"}, "FYN": {"target": "T19, FYN (Homo sapiens, UniProt P06241)", "T19 construct": "purchased Promega (NanoBRET Target Engagement K192 Kinase Selectivity System)", "conditions": "HEK293", "method": "as §1, §2, §3, §4"}, "CDK20 + H": {"target": "T20, CDK20 + H (Homo sapiens, UniProt Q8IZL9)", "T20 construct": "purchased Promega (NanoBRET Target Engagement K192 Kinase Selectivity System)", "T20 sequence (Q8IZL9 whole entry)": "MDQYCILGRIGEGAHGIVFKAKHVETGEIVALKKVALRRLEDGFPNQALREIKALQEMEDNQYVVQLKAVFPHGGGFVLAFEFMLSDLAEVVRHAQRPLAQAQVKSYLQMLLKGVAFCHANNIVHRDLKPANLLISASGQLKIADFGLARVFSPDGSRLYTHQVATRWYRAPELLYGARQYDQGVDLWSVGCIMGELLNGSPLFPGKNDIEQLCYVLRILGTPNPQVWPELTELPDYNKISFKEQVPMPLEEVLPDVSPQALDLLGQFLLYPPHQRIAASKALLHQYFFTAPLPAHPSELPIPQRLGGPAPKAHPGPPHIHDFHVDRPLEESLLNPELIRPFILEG", "T20 sequence (P51946 whole entry partner)": "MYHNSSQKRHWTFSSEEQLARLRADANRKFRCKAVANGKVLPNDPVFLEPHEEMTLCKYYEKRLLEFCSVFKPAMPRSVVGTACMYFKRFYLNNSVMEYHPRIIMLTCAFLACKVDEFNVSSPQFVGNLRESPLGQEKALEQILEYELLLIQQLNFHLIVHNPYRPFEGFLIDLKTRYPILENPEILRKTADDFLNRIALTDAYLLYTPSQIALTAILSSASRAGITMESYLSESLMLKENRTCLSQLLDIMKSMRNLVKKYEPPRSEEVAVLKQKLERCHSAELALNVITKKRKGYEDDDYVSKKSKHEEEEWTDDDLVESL", "conditions": "HEK293", "method": "as §1, §2, §3, §4"}, "CAMK2D": {"target": "T21, CAMK2D (Homo sapiens, UniProt Q13557)", "T21 construct": "purchased Promega (NanoBRET Target Engagement K192 Kinase Selectivity System)", "conditions": "HEK293", "method": "as §1, §2, §3, §4"}, "CDK9 + K": {"target": "T22, CDK9 + K (Homo sapiens, UniProt P50750)", "T22 construct": "purchased Promega (NanoBRET Target Engagement K192 Kinase Selectivity System)", "conditions": "HEK293", "method": "as §1, §2, §3, §4"}, "MAP3K21": {"target": "T23, MAP3K21 (Homo sapiens, UniProt Q5TCX8)", "T23 construct": "purchased Promega (NanoBRET Target Engagement K192 Kinase Selectivity System)", "conditions": "HEK293", "method": "as §1, §2, §3, §4"}, "ERN2": {"target": "T24, ERN2 (Homo sapiens, UniProt Q76MJ5)", "T24 construct": "purchased Promega (NanoBRET Target Engagement K192 Kinase Selectivity System)", "conditions": "HEK293", "method": "as §1, §2, §3, §4"}, "NLK": {"target": "T25, NLK (Homo sapiens, UniProt Q9UBE8)", "T25 construct": "purchased Promega (NanoBRET Target Engagement K192 Kinase Selectivity System)", "conditions": "HEK293", "method": "as §1, §2, §3, §4"}, "PTK6": {"target": "T26, PTK6 (Homo sapiens, UniProt Q13882)", "T26 construct": "purchased Promega (NanoBRET Target Engagement K192 Kinase Selectivity System)", "conditions": "HEK293", "method": "as §1, §2, §3, §4"}, "PRKACB": {"target": "T27, PRKACB (Homo sapiens, UniProt P22694)", "T27 construct": "purchased Promega (NanoBRET Target Engagement K192 Kinase Selectivity System)", "conditions": "HEK293", "method": "as §1, §2, §3, §4"}, "BMX": {"target": "T28, BMX (Homo sapiens, UniProt P51813)", "T28 construct": "purchased Promega (NanoBRET Target Engagement K192 Kinase Selectivity System)", "conditions": "HEK293", "method": "as §1, §2, §3, §4"}}}
{"smiles": "CCC(=O)Nc1cc(Nc2cc(NC3CC3)n3ncc(C#N)c3n2)c(F)cc1N1CCC[C@H](NC)C1", "note": "[Compound 2, (S)-N-(5-((3-cyano-7-(cyclopropylamino)pyrazolo[1,5-a]pyrimidin-5-yl)amino)-4-fluoro-2-(3-(methylamino)piperidin-1-yl)phenyl)propionamide]", "values": [{"measurement": "receptor occupancy at 10 µM", "setting": "RIPK2", "value": 9.3, "unit": "%"}, {"measurement": "receptor occupancy at 10 µM", "setting": "LIMK2", "value": 1.1, "unit": "%"}, {"measurement": "receptor occupancy at 10 µM", "setting": "HIPK3", "value": 25.5, "unit": "%"}, {"measurement": "receptor occupancy at 10 µM", "setting": "NEK11", "value": 19.1, "unit": "%"}, {"measurement": "receptor occupancy at 10 µM", "setting": "PHKG2", "value": 29.7, "unit": "%"}, {"measurement": "% occupancy at 10 μM", "setting": "CSNK2A2; CSNK2A2, HEK293", "value": 97, "unit": "%"}, {"measurement": "receptor occupancy at 10 µM", "setting": "CSNK2A2; HEK293, CSNK2A2", "value": 96.9, "unit": "%"}, {"measurement": "receptor occupancy at 10 µM", "setting": "NEK1", "value": -1.9, "unit": "%"}, {"measurement": "receptor occupancy at 10 µM", "setting": "STK33", "value": 26, "unit": "%"}, {"measurement": "receptor occupancy at 10 µM", "setting": "STK4", "value": 6.9, "unit": "%"}, {"measurement": "receptor occupancy at 10 µM", "setting": "BRSK1", "value": 17.7, "unit": "%"}, {"measurement": "receptor occupancy at 10 µM", "setting": "MAP3K19", "value": 2.4, "unit": "%"}, {"measurement": "receptor occupancy at 10 µM", "setting": "CDK2 + E1", "value": 15.9, "unit": "%"}, {"measurement": "receptor occupancy at 10 µM", "setting": "AURKC", "value": 4.5, "unit": "%"}, {"measurement": "receptor occupancy at 10 µM", "setting": "CDK6 + D1", "value": 11.9, "unit": "%"}, {"measurement": "receptor occupancy at 10 µM", "setting": "PLK2", "value": 29.6, "unit": "%"}, {"measurement": "receptor occupancy at 10 µM", "setting": "BTK", "value": 3, "unit": "%"}, {"measurement": "receptor occupancy at 10 µM", "setting": "EPHA4", "value": 7.8, "unit": "%"}, {"measurement": "receptor occupancy at 10 µM", "setting": "PAK6", "value": 15.3, "unit": "%"}, {"measurement": "receptor occupancy at 10 µM", "setting": "FYN", "value": 18.1, "unit": "%"}, {"measurement": "receptor occupancy at 10 µM", "setting": "CDK20 + H", "value": 23.4, "unit": "%"}, {"measurement": "receptor occupancy at 10 µM", "setting": "CAMK2D", "value": 18.4, "unit": "%"}, {"measurement": "receptor occupancy at 10 µM", "setting": "CDK9 + K", "value": 19.8, "unit": "%"}, {"measurement": "receptor occupancy at 10 µM", "setting": "MAP3K21", "value": 4.8, "unit": "%"}, {"measurement": "receptor occupancy at 10 µM", "setting": "ERN2", "value": 9.2, "unit": "%"}, {"measurement": "receptor occupancy at 10 µM", "setting": "NLK", "value": 11.9, "unit": "%"}, {"measurement": "receptor occupancy at 10 µM", "setting": "PTK6", "value": 4.4, "unit": "%"}, {"measurement": "receptor occupancy at 10 µM", "setting": "PRKACB", "value": 9.2, "unit": "%"}, {"measurement": "receptor occupancy at 10 µM", "setting": "BMX", "value": 0.6, "unit": "%"}]}
